We go through 2 compounds from patent US8492559B2, “Substituted indole compounds” (Gruenenthal GmbH, priority 2009, dated 2013).

In the assay the target is T1, B1R receptor of the rat (rB1R) (Rattus norvegicus, UniProt P97583).
T1 construct: expressed in transfected cells; host or cells: CHO K1 cells
T1 sequence (P97583 1-337): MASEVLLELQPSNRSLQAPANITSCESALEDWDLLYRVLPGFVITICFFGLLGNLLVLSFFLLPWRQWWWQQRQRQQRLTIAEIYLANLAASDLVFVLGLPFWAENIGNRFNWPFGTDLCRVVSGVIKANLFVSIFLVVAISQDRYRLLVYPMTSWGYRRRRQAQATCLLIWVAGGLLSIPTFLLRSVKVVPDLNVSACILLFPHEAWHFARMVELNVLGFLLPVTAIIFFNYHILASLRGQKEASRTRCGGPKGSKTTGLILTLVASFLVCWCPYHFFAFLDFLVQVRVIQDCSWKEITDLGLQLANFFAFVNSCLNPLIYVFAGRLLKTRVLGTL
Nature of the assay: Functional investigation on the bradykinin 1 receptor (B1R), FLIPR Ca2+ assay, rB1R cells. The assay is classed as cell-based. Particulars: CHO-K1, 10 μM test substance; CHO K1 cells with rat B1R; agonist Des-Arg9 bradykinin; % of maximum achievable inhibition; read-out: B1R antagonism, rat [10 μM] % inhibition. Put shortly:
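Ca2+ influx is measured as peak Fluo-4 fluorescence in a FLIPR protocol with two substance additions, following Lys-Des-[MUT] bradykinin (0.5 nM) or Des-[MUT] bradykinin (100 nM) challenge. Varying antagonist concentrations give % inhibition relative to maximum achievable and an IC50. Determinations in duplicate or triplicate, repeated independently (N>=2).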

For the compound `COc1cc(C)c(S(=O)(=O)Nc2cccc3ccn(CC(=O)N(C)CCCN4CCC(c5ccccc5)(N(C)C)CC4)c23)c(C)c1` [G_CC-14, N-[3-(4-Dimethylamino-4-phenyl-piperidin-1-yl)-propyl]-2-[7-[[(4-methoxy-2,6-dimethyl-phenyl)sulfonyl]amino]-1H-indol-1-yl]-N-methyl-acetamide], the inhibition at 10 µM was 86%. The value for `O=C(CCn1ccc2ccc(N3Cc4cccc(Cl)c4C3=O)cc21)NCCC1CCN(c2ccncc2)CC1` [G_CC-72, 3-[6-(4-Chloro-3-oxo-1,2-dihydro-isoindol-2-yl)-1H-indol-1-yl]-N-[2-(1-pyridin-4-yl-piperidin-4-yl)-ethyl]-propionamide] was 71%.

By inhibition is commonly meant the share of the control response that was lost under treatment.
